Test results: US20190070140A1, “COMPOSITION COMPRISING PROTECTIN DX AS ACTIVE INGREDIENT FOR PREVENTING OR TREATING HYPERLIPIDEMIA OR FATTY LIVER DISEASE” (Solvit P&F, priority 2017, published 2019)

Test system: IRE-1, eIF2α and CHOP
Assay: Western-blot assay of phosphorylation and expression of ER stress markers in palmitate-treated HepG2 cells
Type: cell-based, Human
Details: for expression of ER stress markers IRE-1, eIF2α and CHOP: FIG. 2A
Procedure: Human liver cells, that is, HepG2 cells (ATCC, Manassas, Va., USA) were cultured in high-glucose Dulbecco's modified eagle medium (DMEM, Invitrogen, Carlsbad, Calif., USA), which includes 10% fetal bovine serum (FBS, Invitrogen), 100 units/mL of penicillin and 100 μg/ml of streptomycin. The cells were incubated at 37° C. under a condition of 5% CO2. Mycoplasma was not detected in HepG2 cells. PDX (Cayman Chemical, Ann Arbor, Mich., USA) was dissolved in ethanol. Sodium palmitate (Sigma, St. Louis, Mo., USA) was mixed with 2% BSA (fatty acid free level; Sigma) in DMEM. […] In all experiments, the cells were treated with palmitate-BSA and PDX for 24 hours, while 2% BSA-ethanol was used as a control group. After collecting HepG2 cells, protein was extracted from the cells with a buffer (PRO-PREF; Intron Biotechnology, Seoul, Korea) at 4° C. for 1 hour. A protein sample (35 μg) was applied to 12% SDS-PAGE, transferred to a nitrocellulose film (Amersham Bioscience, Westborough, Mass., USA), detected with a primary antibody, followed by probing with a secondary antibody and another secondary antibody conjugated with horseradish […] (Santa Cruz Biotechnology). The sample was detected by ECL kit. Under 70% comfluency, 0 to 20 nmol/L […] (si)RNA oligonucleotide to ORP150 purchased from Santa Cruz Biotechnology was transfected to inhibit gene expression. Scramble siRNA was used as a control group. 2 or 4 μg of pCMV3-ORP150 (Sino Biological, Beijing, China) was transiently transfected, leading to over-expression of ORP150. pCMV3 empty-vector was used as a control group. According to instruction of the manufacturer, transfection was executed using lipofectamine 2000 (Invitrogen).

SMILES: CC/C=C\C[C@H](O)/C=C/C=C\C=C\[C@@H](O)C/C=C\C/C=C\CCC(=O)O [PDX, 10S,17S-dihydroxy-docosa-4Z,7Z,11E,13Z,15E,19Z-hexaeonic acid]
- expression of ER stress markers IRE-1, eIF2α and CHOP (palmitate + PDX + siORP150 (ORP150 silencing)): increased again
- phosphorylation and expression of ER stress markers IRE-1, eIF2α and CHOP (palmitate-induced, 24 hours, FIG. 1C): significantly decreased depending upon a dose of PDX
- expression of ER stress markers IRE-1, eIF2α and CHOP (scramble siRNA + palmitate + PDX): reduced
